Laboratory results from US10544120B2, “Biaryl kinase inhibitors” (BRISTOL-MYERS SQUIBB COMPANY, priority 2015, dated 2020).

target: GST-Xa-hAAK1 (Homo sapiens (Human), UniProt Q2M2I8); experiment: AAK1 Kinase Assay; type: biochemical; details: bacterially expressed GST-Xa-hAAK1 3.5 nM; ATP 22 μM; fluoresceinated peptide 1.5 μM; 3 hours at room temperature; Caliper LabChip 3000
Method: The assays were performed in U-bottom 384-well plates. […] The reactions were initiated by the combination of bacterially expressed, GST-Xa-hAAK1 with substrates and test compounds. The reactions were incubated at room temperature for 3 hours and terminated by adding 60 μl of 35 mM EDTA buffer to each sample. The reactions were analyzed on the Caliper LabChip 3000 (Caliper, Hopkinton, Mass.) by electrophoretic separation of the fluorescent substrate and phosphorylated product. […] Compounds were dissolved at 10 mM in dimethylsulfoxide (DMSO) and evaluated at eleven concentrations. IC50 values were derived by non-linear regression analysis.

GST-Xa-hAAK1, sequence (Q2M2I8 whole entry): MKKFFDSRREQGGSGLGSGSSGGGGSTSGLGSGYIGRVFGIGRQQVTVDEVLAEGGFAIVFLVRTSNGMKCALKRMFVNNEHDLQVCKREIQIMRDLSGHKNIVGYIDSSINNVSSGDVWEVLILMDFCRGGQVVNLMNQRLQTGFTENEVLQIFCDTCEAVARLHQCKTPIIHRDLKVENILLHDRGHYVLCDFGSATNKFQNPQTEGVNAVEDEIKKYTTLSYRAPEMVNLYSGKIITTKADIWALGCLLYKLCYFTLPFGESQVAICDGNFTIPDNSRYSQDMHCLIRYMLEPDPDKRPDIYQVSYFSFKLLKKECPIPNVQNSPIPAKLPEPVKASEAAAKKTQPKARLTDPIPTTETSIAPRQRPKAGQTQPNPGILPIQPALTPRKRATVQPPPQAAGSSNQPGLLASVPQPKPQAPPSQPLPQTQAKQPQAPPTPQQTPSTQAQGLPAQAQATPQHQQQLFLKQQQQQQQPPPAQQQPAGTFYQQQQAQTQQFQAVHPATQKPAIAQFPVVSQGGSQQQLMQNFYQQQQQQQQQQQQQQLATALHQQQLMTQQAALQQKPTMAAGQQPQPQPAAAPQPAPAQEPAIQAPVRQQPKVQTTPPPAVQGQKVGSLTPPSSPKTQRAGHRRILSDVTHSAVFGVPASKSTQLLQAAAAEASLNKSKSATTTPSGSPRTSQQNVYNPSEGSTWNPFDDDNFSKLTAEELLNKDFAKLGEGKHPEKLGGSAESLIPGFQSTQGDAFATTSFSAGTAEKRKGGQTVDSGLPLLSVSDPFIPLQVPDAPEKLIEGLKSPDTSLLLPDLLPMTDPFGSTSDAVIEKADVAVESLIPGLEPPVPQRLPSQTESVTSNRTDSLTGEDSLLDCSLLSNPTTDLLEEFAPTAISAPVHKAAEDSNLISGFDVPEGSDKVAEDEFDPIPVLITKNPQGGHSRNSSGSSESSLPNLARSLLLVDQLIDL

SMILES	IC50 [nM]
COC(=O)Nc1cc(-c2ccc(OC[C@@](C)(N)CC(C)C)c(CF)n2)ccn1 [Example 280, (S)-methyl (5-((2-amino-2,4-dimethylpentyl)oxy)-6-(fluoromethyl)-[2,4′-bipyridin]-2′-yl)carbamate]	1.1
Cc1nc(-c2ccnc(Cl)n2)ccc1OC[C@@](C)(N)CC(C)C [Example 451, (S)-1-((6-(2-chloropyrimidin-4-yl)-2-methylpyridin-3-yl)oxy)-2,4-dimethylpentan-2-amine]	2.7
Cc1cc2c(-c3ccc(OC[C@@](C)(N)CC(C)C)c(C#N)c3)ccnc2[nH]1 [Example 328, (S)-2-((2-amino-2,4-dimethylpentyl)oxy)-5-(2-methyl-1H-pyrrolo[2,3-b]pyridin-4-yl)benzonitrile]	0.4
Cc1cc(-c2ccc(OC[C@@](C)(N)CC(C)C)c(CF)n2)ncn1 [Example 387, (S)-1-((2-(fluoromethyl)-6-(6-methylpyrimidin-4-yl)pyridin-3-yl)oxy)-2,4-dimethylpentan-2-amine]	1010
COC(=O)Nc1cc(-c2ccc(OC[C@@](C)(N)CC(C)C)c(C(F)(F)F)c2)ncn1 [Example 432, (S)-methyl (6-(4-((2-amino-2,4-dimethylpentyl)oxy)-3-(trifluoromethyl)phenyl)pyrimidin-4-yl)carbamate]	0.7
CCc1cc(-c2cnc(OC[C@@](C)(N)CC(C)C)c(C)c2)ncn1 [Example 447, (S)-1-((5-(6-ethylpyrimidin-4-yl)-3-methylpyridin-2-yl)oxy)-2,4-dimethylpentan-2-amine]	304
Cc1nc(-c2cc(N)ncn2)ccc1OC[C@@](C)(N)CC(C)C [Example 343, (S)-6-(5-((2-amino-2,4-dimethylpentyl)oxy)-6-methylpyridin-2-yl)pyrimidin-4-amine]	19
CC(C)C[C@](C)(N)COc1ccc(-c2ccnc(C(F)(F)F)n2)cc1C#N [Example 474, (S)-2-(2-amino-2,4-dimethylpentyloxy)-5-(2-(trifluoromethyl)pyrimidin-4-yl)benzonitrile]	6.6
Cc1nc(-c2ccnc(C(F)(F)F)c2)ccc1OC[C@@](C)(N)CC(C)C [Example 348, (S)-2,4-dimethyl-1-((6-methyl-2′-(trifluoromethyl)-[2,4′-bipyridin]-5-yl)oxy)pentan-2-amine]	512
CCc1cc(-c2ccc(OC[C@@](C)(N)CC(C)C)c(C(F)(F)F)c2)ncn1 [Example 444, (S)-1-(4-(6-ethylpyrimidin-4-yl)-2-(trifluoromethyl)phenoxy)-2,4-dimethylpentan-2-amine]	153
Cc1cc(-c2cc(C(F)F)c(OC[C@@](C)(N)CC(C)C)cn2)ncn1 [Example 318, (S)-1-((4-(difluoromethyl)-6-(6-methylpyrimidin-4-yl)pyridin-3-yl)oxy)-2,4-dimethylpentan-2-amine]	9.7
Cc1nccc(-c2cnc(OCC(N)(CC(C)C)C(F)(F)F)c(C)c2)n1 (centres unmarked) [Example 274, 1,1,1-trifluoro-4-methyl-2-(((3-methyl-5-(2-methylpyrimidin-4-yl)pyridin-2-yl)oxy)methyl)pentan-2-amine]	986
Cc1nccc(-c2ccc(OCC(N)(CC(C)C)C(F)(F)F)c(C)n2)n1 (centres unmarked) [Example 491, 1,1,1-trifluoro-4-methyl-2-(((2-methyl-6-(2-methylpyrimidin-4-yl)pyridin-3-yl)oxy)methyl)pentan-2-amine]	789
COC(=O)Nc1nccc(-c2cnc(OC[C@@](C)(N)CC(C)C)cc2C)n1 [Example 374, (S)-methyl (4-(6-((2-amino-2,4-dimethylpentyl)oxy)-4-methylpyridin-3-yl)pyrimidin-2-yl)carbamate]	339
Cc1nccc(-c2ccc(OC[C@@](C)(N)CC(C)C)c(Cl)c2)n1 [Example 469, (S)-1-(2-chloro-4-(2-methylpyrimidin-4-yl)phenoxy)-2,4-dimethylpentan-2-amine]	1.5
COC(=O)Nc1nccc(-c2ccc(OC[C@@](C)(N)CC(C)C)cc2)n1 [Example 505, (S)-methyl (4-(4-((2-amino-2,4-dimethylpentyl)oxy)phenyl)pyrimidin-2-yl)carbamate]	8.7
Cc1nccc(-c2ccc(OC[C@](C)(N)CC(C)C)c(C)n2)n1 [Example 354, (R)-2,4-dimethyl-1-((2-methyl-6-(2-methylpyrimidin-4-yl)pyridin-3-yl)oxy)pentan-2-amine]	321
CC(C)C[C@](C)(N)COc1ccc(-c2ccnc(CF)c2)nc1CF [Example 324, (S)-1-((2′,6-bis(fluoromethyl)-[2,4′-bipyridin]-5-yl)oxy)-2,4-dimethylpentan-2-amine]	4.8
Cc1nccc(-c2ccc(OC[C@@](C)(N)CC(C)C)c(F)c2)n1 [Example 462, (S)-1-(2-fluoro-4-(2-methylpyrimidin-4-yl)phenoxy)-2,4-dimethylpentan-2-amine]	21

SMILES	IC50 [nM]
Cc1nccc(-c2cnc(OC[C@@](C)(N)CC(C)C)c(-c3cnco3)c2)n1 [Example 298, (S)-2,4-dimethyl-1-((5-(2-methylpyrimidin-4-yl)-3-(oxazol-5-yl)pyridin-2-yl)oxy)pentan-2-amine]	45
Cc1cc(-c2ccc(OC[C@@](C)(N)CC(C)C)c(CF)n2)ccn1 [Example 320, (S)-1-((6-(fluoromethyl)-2′-methyl-[2,4′-bipyridin]-5-yl)oxy)-2,4-dimethylpentan-2-amine]	21
Cc1cc(-c2ccnc(C(F)(F)F)c2)ncc1OC[C@@](C)(N)CC(C)C [Example 349, (S)-2,4-dimethyl-1-((4-methyl-2′-(trifluoromethyl)-[2,4′-bipyridin]-5-yl)oxy)pentan-2-amine]	70
CC(C)C[C@](C)(N)COc1ccc(-c2ccnc(C(F)F)n2)nc1C(F)F [Example 319, (S)-1-((2-(difluoromethyl)-6-(2-(difluoromethyl)pyrimidin-4-yl)pyridin-3-yl)oxy)-2,4-dimethylpentan-2-amine]	0.5
Cc1nccc(-c2ccc(OC[C@@](C)(N)CC(C)C)c(C)c2)n1 [Example 329, (S)-2,4-dimethyl-1-(2-methyl-4-(2-methylpyrimidin-4-yl)phenoxy)pentan-2-amine]	2.4
CC(C)C[C@](C)(N)COc1ccc(-c2cc(N)ncn2)cc1C(F)(F)F [Example 278, (S)-6-(4-((2-amino-2,4-dimethylpentyl)oxy)-3-(trifluoromethyl)phenyl) pyrimidin-4-amine]	1.9
Cc1nc(-c2ccnc(N)n2)ccc1OC[C@@](C)(N)CC(C)C [Example 313, (S)-4-(5-((2-amino-2,4-dimethylpentyl)oxy)-6-methylpyridin-2-yl)pyrimidin-2-amine]	2.4
COC(=O)Nc1nccc(-c2cnc(OC[C@@](C)(N)CC(C)C)c(C)c2)n1 [Example 379, (S)-methyl (4-(6-((2-amino-2,4-dimethylpentyl)oxy)-5-methylpyridin-3-yl)pyrimidin-2-yl)carbamate]	35
Cc1nccc(-c2ccc(OCC(N)(CC(C)C)C(F)(F)F)c(C)n2)n1 (single isomer, unassigned) [Example 360, 1,1,1-trifluoro-4-methyl-2-(((2-methyl-6-(2-methylpyrimidin-4-yl)pyridin-3-yl)oxy)methyl)pentan-2-amine]	1250
CC(C)C[C@](C)(N)COc1ccc(-c2ccnc(Cl)n2)cc1C#N [Example 378, (S)-2-((2-amino-2,4-dimethylpentyl)oxy)-5-(2-chloropyrimidin-4-yl)benzonitrile]	1.4
CCC(C)CC(=O)Nc1cc(-c2ccc(OC[C@@](C)(N)CC(C)C)c(C(F)(F)F)c2)ccn1 (stereo partly drawn) [Example 396, N-(4-(4-(((S)-2-amino-2,4-dimethylpentyl)oxy)-3-(trifluoromethyl)phenyl)pyridin-2-yl)-3-methylpentanamide]	1.6
CC(C)C[C@](C)(N)COc1ccc(-c2ccnc(C(F)(F)F)n2)cc1Cl [Example 465, (S)-1-(2-chloro-4-(2-(trifluoromethyl)pyrimidin-4-yl)phenoxy)-2,4-dimethylpentan-2-amine]	3.6
COc1cc(-c2ccc(OC[C@@](C)(N)CC(C)C)c(C#N)c2)ncn1 [Example 439, (S)-2-((2-amino-2,4-dimethylpentyl)oxy)-5-(6-methoxypyrimidin-4-yl)benzonitrile]	128
Cc1nccc(-c2ccc(OCC(N)(CC(C)C)C(F)(F)F)c(C)n2)n1 (single isomer, unassigned) [Example 359, 1,1,1-trifluoro-4-methyl-2-(((2-methyl-6-(2-methylpyrimidin-4-yl)pyridin-3-yl)oxy)methyl)pentan-2-amine]	865
CC(C)C[C@](C)(N)COc1ccc(-c2ccnc(C(C)C)n2)cc1Cl [Example 480, (S)-1-(2-chloro-4-(2-isopropylpyrimidin-4-yl)phenoxy)-2,4-dimethylpentan-2-amine]	18
COC(=O)Nc1nccc(-c2cnc(OC[C@](C)(N)CC(C)C)c(C)c2)n1 [Example 372, (R)-methyl (4-(6-((2-amino-2,4-dimethylpentyl)oxy)-5-methylpyridin-3-yl)pyrimidin-2-yl)carbamate]	236
Cc1cc(-c2ccnc(Cl)n2)ccc1OC[C@@](C)(N)CC(C)C [Example 367, (S)-1-(4-(2-chloropyrimidin-4-yl)-2-methylphenoxy)-2,4-dimethylpentan-2-amine]	4.5
Cc1nccc(-c2ccc(OC[C@@](C)(N)CC(C)C)c(C)n2)n1 [Example 484, (S)-2,4-dimethyl-1-(2-methyl-6-(2-methylpyrimidin-4-yl)pyridin-3-yloxy)pentan-2-amine]	3.2
Cc1nccc(-c2ccc(OC[C@@](C)(N)CC(C)C)c(C#N)c2)n1 [Example 458, (S)-2-(2-amino-2,4-dimethylpentyloxy)-5-(2-methylpyrimidin-4-yl) benzonitrile]	1.5
